# Where “and” joins values, the source holds several entries; their conditions need not be identical. Identical values can stand only once. Like-named read-outs stand apart in the source and are kept apart here.
# Legend:
# HO-1 [1] = target: T1, HO-1 (Rattus norvegicus, UniProt P06762); details: reference compounds; data taken from ref 32; read-out: IC50 (μM) ± SD HO-1; cited from earlier work
# T1 construct: selected in order to use the most native (i.e., closest to in vivo) forms of HO-1 and HO-2; from tissue; host or cells: spleen microsomal fraction of male Sprague-Dawley rats
# T1 sequence (P06762 1-289): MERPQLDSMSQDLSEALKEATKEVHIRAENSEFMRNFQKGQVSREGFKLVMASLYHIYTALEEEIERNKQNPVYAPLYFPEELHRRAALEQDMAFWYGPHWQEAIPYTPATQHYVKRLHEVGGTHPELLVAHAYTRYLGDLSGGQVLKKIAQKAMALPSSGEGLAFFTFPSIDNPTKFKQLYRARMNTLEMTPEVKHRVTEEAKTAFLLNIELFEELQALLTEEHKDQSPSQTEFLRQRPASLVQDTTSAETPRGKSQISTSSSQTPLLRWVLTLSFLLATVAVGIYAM
# HO-2 [2] = target: T2, HO-2 (Rattus norvegicus, UniProt P23711); details: reference compounds; data taken from ref 32; read-out: IC50 (μM) ± SD HO-2; cited from earlier work
# T2 construct: selected in order to use the most native (i.e., closest to in vivo) forms of HO-1 and HO-2; from tissue; host or cells: brain microsomal fraction of male Sprague-Dawley rats
# T2 sequence (P23711 1-315): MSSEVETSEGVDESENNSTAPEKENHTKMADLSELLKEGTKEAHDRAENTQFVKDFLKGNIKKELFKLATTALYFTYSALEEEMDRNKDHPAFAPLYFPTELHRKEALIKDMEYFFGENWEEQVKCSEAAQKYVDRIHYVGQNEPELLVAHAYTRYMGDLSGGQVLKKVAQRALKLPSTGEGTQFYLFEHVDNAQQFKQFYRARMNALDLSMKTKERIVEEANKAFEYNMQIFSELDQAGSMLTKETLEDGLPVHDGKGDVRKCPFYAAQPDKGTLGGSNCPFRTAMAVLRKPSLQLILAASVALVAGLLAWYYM
# HO-1 [3] = target: T1, HO-1; assay: HO-1 inhibition, bilirubin formation in rat spleen microsomal fraction; assay type: biochemical
# Description: (§1) HO-1 and HO-2 were obtained from the microsomal fractions of rat spleen and rat brain, respectively. Enzymatic activity of both isoforms was determined by measuring the bilirubin formation using the difference in absorbance at 464–530 nm, as described in the experimental section. Compounds A–C, and tin protoporphyrin (SnPP) were used as reference substances. Inhibition of enzymes activity is expressed as IC50 (μM), and results are resumed in Table 1.
# The dominance of HO-1 protein in the rat spleen and of HO-2 in the rat brain has been well documented; thus, the microsomal fraction, prepared by differential centrifugation, from rat spleen and brain have been used to obtain HO-1 and HO-2. These particular microsomal preparations were selected in order to use the most native (i.e., closest to in vivo) forms of HO-1 and HO-2. Spleen and brain microsomal fractions, from Sprague–Dawley rats, were prepared following a published procedure. All experiments complied with current Italian law and met the guidelines of the Institutional Animal Care and Use Committee of MINISTRY OF HEALTH (Directorate General for Animal Health and Veterinary Medicines, Italy). Male Sprague–Dawley albino rats (150 g body weight and age 45 d) were used. Rats had free access to water, and they were maintained at room temperature with a natural photoperiod (12 h:12 h light–dark cycle). For measuring HO-1 and HO-2 activities, each rat was sacrificed and their spleen and brain were excised and weighed. A homogenate (15%, w/v) of spleens and brains pooled from four rats was prepared in ice-cold HO-homogenizing buffer (50 mM Tris buffer, pH 7.4, containing 0.25 M sucrose) using a Potter–Elvehjem homogenizing system with a Teflon pestle. The microsomal fraction of rat spleen and brain homogenate was obtained by centrifugation at 10,000× g for 20 min at 4 °C, followed by centrifugation of the supernatant at 100,000× g for 60 min at 4 °C. The 100,000× g pellet (microsomes) was resuspended in 100 mM potassium phosphate buffer, pH 7.8, containing 2 mM MgCl2 with a Potter–Elvehjem homogenizing system. Equal aliquots of the rat spleen and brain microsomal fractions were prepared, placed into microcentrifuge tubes, and stored at −80 °C for up to 2 months. Finally, the Lowry method was used to determine the protein concentration of the microsomal fraction.
# Liver cytosol has been used as a source of biliverdin reductase. Rat liver was perfused through the hepatic portal vein with cold 0.9% NaCl, then it was cut and flushed with 2 × 20 mL of ice-cold PBS to remove all of the blood. Liver tissue was homogenized in three volumes of a solution containing 1.15% KCl w/v and Tris buffer 20 mM, pH 7.8 on ice. Homogenates were centrifuged at 10,000× g for 20 min at 4 °C. The supernatant was decanted and centrifuged at 100,000× g for 1 h at 4 °C to sediment the microsomes. The 100,000× g supernatant was saved and then stored in small amounts at −80 °C after its protein concentration was measured.
# The measurement of bilirubin formation, using the difference in absorbance at 464–530 nm, was used to determine the HO-1 and HO-2 activities, as previously described by Ryter et al.. Reaction mixtures (500 μL) consisted of 20 mM Tris–HCl, pH 7.4, (1 mg/mL) microsomal extract, 0.5–2 mg/mL biliverdin reductase, 1 mM NADPH, 2 mM glucose 6-phosphate (G6P), 1 U G6P dehydrogenase, 25 μM hemin, and 10 μL of DMSO (or the same volume of DMSO solution of test or reference compounds to a final concentration of 100, 10, and 1 μM). Incubations were carried out for 60 min at 37 °C in a circulating water bath in the dark. One volume of chloroform was added to stop the reactions. Then, the chloroform phase was recovered, and the amount of bilirubin, which was formed has been measured with a double-beam spectrophotometer as OD464–530 nm (extinction coefficient, 40 mM/cm^−1 for bilirubin). […]
# MCF-7 cells = assay: Sulforhodamine B (SRB) cytotoxicity assay, MCF-7; assay type: cell-based; details: Homo sapiens, MCF7, hormone-sensitive breast cancer cells, 10–100 μM, 48 h, mean ± SEM (n = 3), read-out: IC50 cytotoxicity against MCF-7
# Description: (§2) Both cell lines were treated with 10–100 μM of compound 5a for 48 h. Cell survival at different concentrations was calculated compared to untreated controls. At the end of treatment, cell number was determined using the sulforhodamine B (SRB) colorimetric assay based on the measurement of cellular protein content.
# (§3) MCF-7 and MDA-MB-231 cells were maintained in complete growth media (DMEM/Ham’s F12 supplemented with 10% fetal bovine serum, 2 mM L-glutamine, 100 units/mL penicillin, 100 units/mL of streptomycin, and 2.2 g/L of NaHCO3) at 37 °C in a humidified atmosphere of 5% CO2. For all procedures, cells were harvested using TrypLE Express (Life Technologies, Auckland, New Zealand).
# (§4) Cells were seeded into 96-well plates and incubated for 24 h to test the cytotoxic effect of the HO inhibitor. After 24 h incubation, different concentrations of the HO inhibitor were administered for 48 h. Following the incubation, cells were fixed using 10% trichloro-acetic acid (TCA). The cytotoxicity was determined using the sulforhodamine B assay was used, as previously described, to determine the cytotoxicity of the HO-1 inhibitor. IC50 (the concentration required to decrease the cell number by 50%) was determined by non-linear regression using Graphpad prism 6 software. Treatments were performed in triplicate, and data represent the mean of three independent experiments.
# MDA-MB-231 cells = assay: Sulforhodamine B (SRB) cytotoxicity assay, MDA-MB-231; assay type: cell-based; details: hormone-resistant breast cancer cells, 10–100 μM, 48 h
# Description: as §2, §3, §4
# HO-2 [4] = target: T2, HO-2; assay: HO-2 inhibition, bilirubin formation in rat brain microsomal fraction; assay type: biochemical; details: mean ± SD of three determinations
# Description: as §1
# The dominance of HO-1 protein in the rat spleen and of HO-2 in the rat brain has been well documented; thus, the microsomal fraction, prepared by differential centrifugation, from rat spleen and brain have been used to obtain HO-1 and HO-2. These particular microsomal preparations were selected in order to use the most native (i.e., closest to in vivo) forms of HO-1 and HO-2. Spleen and brain microsomal fractions, from Sprague–Dawley rats, were prepared following a published procedure. All experiments complied with current Italian law and met the guidelines of the Institutional Animal Care and Use Committee of MINISTRY OF HEALTH (Directorate General for Animal Health and Veterinary Medicines, Italy). Male Sprague–Dawley albino rats (150 g body weight and age 45 d) were used. Rats had free access to water, and they were maintained at room temperature with a natural photoperiod (12 h:12 h light–dark cycle). For measuring HO-1 and HO-2 activities, each rat was sacrificed and their spleen and brain were excised and weighed. […]
# Liver cytosol has been used as a source of biliverdin reductase. […] The 100,000× g supernatant was saved and then stored in small amounts at −80 °C after its protein concentration was measured.
# The measurement of bilirubin formation, using the difference in absorbance at 464–530 nm, was used to determine the HO-1 and HO-2 activities, as previously described by Ryter et al.. […] Then, the chloroform phase was recovered, and the amount of bilirubin, which was formed has been measured with a double-beam spectrophotometer as OD464–530 nm (extinction coefficient, 40 mM/cm^−1 for bilirubin). […]
# [5] = experimental values repeated in the docking table, read-out: IC50 exp. (μM) HO-1
# [6] = rat spleen microsomal fraction, mean ± SD of three determinations, read-out: IC50 (μM) ± SD HO-1
Compound,IC50 (HO-1 [3]; [5]),IC50 (HO-1 [3]; [6]),melting point,also measured
OC(Cn1ccnc1)c1cccc(-c2ccccc2)c1 (centres unmarked) [B],,,,IC50 (HO-1 [1]): 0.95 µM; IC50 (HO-2 [2]): > 100 µM
OC(Cn1ccnc1)c1ccc(OCc2ccc(Br)cc2)cc1 (centres unmarked) [C],,,,IC50 (HO-2 [2]): > 100 µM
"Brc1cccc(CCn2ccnc2)c1 [Compound 2a, 1-(3-bromophenethyl)-1H-imidazole]",100 µM,100 ± 5.6 µM,,
"Brc1ccc(COc2ccc(CCn3ccnc3)cc2)cc1 [Compound 2b, 1-(4-((4-bromobenzyl)oxy)phenethyl)-1H-imidazole]",62.9 ± 3.2 µM,62.9 ± 3.2 µM,147.5 to 149.7 °C,
"c1ccc(-c2cccc(CCn3ccnc3)c2)cc1 [Compound 2c, 1-(2-((1,1’-biphenyl)-3-yl)ethyl)-1H-imidazole]",46.8 ± 1.8 µM,46.8 ± 1.8 µM,,
O=C(Cn1ccnc1)c1cccc(Br)c1 [Compound 4g],,38.2 ± 1.8 µM,,
O=C(Cn1ccnc1)c1cccc(-c2ccccc2)c1 [Compound 4h],,19.9 ± 2.5 µM,,
O=C(Cn1ccnc1)c1ccc(OCc2ccc(Br)cc2)cc1 [Compound 4i],,55.46 ± 0.05 µM,,
"OC(Cn1ccnc1)c1cccc(OCc2ccc(Br)cc2)c1 (centres unmarked) [Compound 5a, 1-[3-[(4-bromobenzyl)oxy]phenyl]-2-(1H-imidazol-1-yl)ethanol]",0.9 ± 0.02 µM,0.9 ± 0.02 µM,123 to 126 °C,IC50 (MCF-7 cells): 47.4 ± 6.8 µM; cytotoxicity against MDA-MB-231 (MDA-MB-231 cells): no cytotoxicity; IC50 (HO-2 [4]): 54 µM and 53.6 µM

# More lines, main results first:
IC50 (HO-1 [3]; [5]),IC50 (HO-1 [3]; [6]),melting point,Compound,also measured
> 100 µM,≥ 100 µM,121.5 to 130 °C,"OC(Cn1ccnc1)c1ccccc1OCc1ccc(Br)cc1 (centres unmarked) [Compound 5b, 1-[2-[(4-bromobenzyl)oxy]phenyl]-2-(1H-imidazol-1-yl)ethanol]",
41 ± 1.5 µM,41 ± 1.5 µM,120.1 to 123 °C,"OC(Cn1ccnc1)c1ccc(OCc2cccc(Br)c2)cc1 (centres unmarked) [Compound 5c, 1-[4-[(3-bromobenzyl)oxy]phenyl]-2-(1H-imidazol-1-yl)ethanol]",
9 ± 2.2 µM,9 ± 2.2 µM,120 to 126 °C,"OC(Cn1ccnc1)c1ccc(OCc2ccccc2Br)cc1 (centres unmarked) [Compound 5d, 1-[4-[(2-bromobenzyl)oxy]phenyl]-2-(1H-imidazol-1-yl)ethanol]",IC50 (HO-2 [4]): 15.8 ± 1.6 µM
46 ± 1.9 µM,46 ± 1.9 µM,93.5 to 99.4 °C,"OC(Cn1ccnc1)c1cccc(OCc2cccc(Br)c2)c1 (centres unmarked) [Compound 5e, 1-[3-[(3-bromobenzyl)oxy]phenyl]-2-(1H-imidazol-1-yl)ethanol]",
44 ± 1.8 µM,44 ± 1.8 µM,132 to 140 °C,"OC(Cn1ccnc1)c1cccc(OCc2ccccc2Br)c1 (centres unmarked) [Compound 5f, 1-[3-[(2-bromobenzyl)oxy]phenyl]-2-(1H-imidazol-1-yl)ethanol]",
> 100 µM,> 100 µM,,"Clc1ccc(COC(Cn2ccnc2)c2cccc(Br)c2)cc1 (centres unmarked) [Compound 6a, 1-(2-(3-bromophenyl)-2-((4-chlorobenzyl)oxy)ethyl)-1H-imidazole]",
66 ± 3.2 µM,66 ± 3.2 µM,,"Clc1ccc(Cl)c(COC(Cn2ccnc2)c2cccc(Br)c2)c1 (centres unmarked) [Compound 6b, 1-(2-(3-bromophenyl)-2-((2,5-dichlorobenzyl)oxy)ethyl)-1H-imidazole]",
,0.58 ± 0.03 µM,,"C=Cc1c2[n-]c(c1C)/C=c1\[n-]/c(c(C)c1C=C)=C\c1[n-]c(c(CCC(=O)O)c1C)/C=c1\[n-]c(c(C)c1CCC(=O)O)=C2.[Sn+4] [SnPP, tin protoporphyrin, reference compound]",IC50 (HO-2 [4]): 0.36 ± 0.01 µM
